Positions count from the first letter of the chain named. Entries after “also recorded” stand apart in the source; their conditions may differ.
Key:
Assay type in all cases: cell-based
HCE cells [1] = test: Effect of synthetic peptides on βig-h3-mediated HCE cell adhesion; details: 100 μM peptide; for cell detachment activity: HCE cell adhesion to βig-h3, FIG. 8a; for inhibition of HCE cell adhesion to βig-h3: preincubation 30 min, dishes coated with 10 μg/ml βig-h3, FIG. 8a
Protocol: (§1) The recombinant βig-h3 fas-1 domain proteins prepared above were assayed for cell attachment activity. First, the recombinant βig-h3 proteins were let to adhere to the bottoms of 96-well microculture plates (Falcon) by incubation at 37° C. for 1 hour and blocked with PBS containing 0.2% BSA. HCE cells were suspended in culture media at a density of 2×10^5 cells/ml. 0.1 ml of the cell suspension was added to each well of the plates coated with the recombinant proteins. Following incubation at 37° C. for 1 hour, unattached cells were removed by washing with PBS. Attached cells were incubated for 1 hour at 37° C. in 50 mM citrate buffer, pH 5.0, containing 3.75 mM p-nitrophenol-N-acetyl 1-β-D-glycosaminide as a hexosaminidase substrate and 0.25% Triton X-100, followed by the addition of 50 mM glycine buffer, pH 10.4, containing 5 mM EDTA to block the enzyme activity. A measurement was made of absorbance at 405 nm in a Multiskan MCC/340 microplate reader.
Effect of the peptides containing conserved sequences of fas-1 domains of βig-h3 on βig-h3-mediated cell adhesion was examined with HCE cells. Cells were preincubated for 30 min in media containing 100 μM of each of the four synthetic peptides or no peptides and transferred to plastic culture dishes coated with 10 μg/ml BSA or 10 μg/ml βig-h3. The attached cells were subjected to quantitative hexosaminidase analysis as in Example 1-2.

HCE cells [2] = test: Cell adhesion of HCE cells to surfaces coated with synthetic peptides; details: plates coated with peptide at 0-120 μM, HCE cells 37° C. 1 hour, FIG. 9a
Protocol: as §1
An experiment was carried out to determine whether each of the synthetic peptides is able to mediate cell adhesion. Well plates were coated with each peptide at concentrations of 0, 20, 40, 60, 80, 100 and 120 μM and then incubated with HCE cells at 37° C. for 1 hour. The attached cells were quantitatively analyzed with hexosaminidase as in Example 1-2.

HCE cells [3] = test: Inhibition of HCE cell adhesion to βig-h3, fibronectin and laminin at various concentrations of EPDIM; details: EPDIM 0-1,200 μM, FIG. 10b
Protocol: as §1
HCE cells were incubated in media containing the synthetic peptide EPDIM (SEQ ID NO:3) at concentrations of 0, 200, 400, 600, 800, 1,000 and 1,200 μM and applied to plates coated with βig-h3, fibronectin and laminin. Following incubation for 1 hour, the attached cells were quantitatively analyzed with hexosaminidase as in Example 1-2.

HCE cells [4] = test: Effect of synthetic peptides on HCE cell adhesion to various extracellular matrix proteins; details: 100 μM peptide; for inhibition of cell adhesion to fibronectin: plates coated with fibronectin; for inhibition of cell adhesion to fibronectin / inhibition of cell adhesion to laminin / inhibition of cell adhesion to type I collagen / inhibition of cell adhesion to type II collagen / inhibition of cell adhesion to vitronectin: FIG. 10a; for inhibition of cell adhesion to laminin: plates coated with laminin; for inhibition of cell adhesion to type I collagen: plates coated with type I collagen; for inhibition of cell adhesion to type II collagen: plates coated with type II collagen; for inhibition of cell adhesion to vitronectin: plates coated with vitronectin; for inhibition of cell adhesion to βig-h3: plates coated with βig-h3, FIG. 10a
Protocol: as §1
To determine whether the inhibitory activity of synthetic peptides EPDIM (SEQ ID NO:3 and NKDIL (SEQ ID NO:2) against cell adhesion is specific to βig-h3, effects of the synthetic peptides on cell adhesion to various matrix proteins were examined. HCE cells were preincubated in media added with 100 μM of the synthetic peptide EPDIM (SEQ ID NO:3) or NKDIL (SEQ ID NO:2) or none of them and then applied to plates coated with various matrix proteins, including βig-h3, fibronectin, laminin, vitronectin, type I and type II collagen. After 1 hour of incubation, the attached cells were quantitatively analyzed with hexosaminidase as in Example 1-2.

α3β1 integrin = test: Function-blocking anti-integrin antibodies on HCE cell adhesion to plates coated with EPDIM or NKDIL; details: plates coated with 100 μM peptide, antibodies 5 μg/ml, FIG. 9b
Chain of α3β1 integrin (P26006 33-872 limits assumed): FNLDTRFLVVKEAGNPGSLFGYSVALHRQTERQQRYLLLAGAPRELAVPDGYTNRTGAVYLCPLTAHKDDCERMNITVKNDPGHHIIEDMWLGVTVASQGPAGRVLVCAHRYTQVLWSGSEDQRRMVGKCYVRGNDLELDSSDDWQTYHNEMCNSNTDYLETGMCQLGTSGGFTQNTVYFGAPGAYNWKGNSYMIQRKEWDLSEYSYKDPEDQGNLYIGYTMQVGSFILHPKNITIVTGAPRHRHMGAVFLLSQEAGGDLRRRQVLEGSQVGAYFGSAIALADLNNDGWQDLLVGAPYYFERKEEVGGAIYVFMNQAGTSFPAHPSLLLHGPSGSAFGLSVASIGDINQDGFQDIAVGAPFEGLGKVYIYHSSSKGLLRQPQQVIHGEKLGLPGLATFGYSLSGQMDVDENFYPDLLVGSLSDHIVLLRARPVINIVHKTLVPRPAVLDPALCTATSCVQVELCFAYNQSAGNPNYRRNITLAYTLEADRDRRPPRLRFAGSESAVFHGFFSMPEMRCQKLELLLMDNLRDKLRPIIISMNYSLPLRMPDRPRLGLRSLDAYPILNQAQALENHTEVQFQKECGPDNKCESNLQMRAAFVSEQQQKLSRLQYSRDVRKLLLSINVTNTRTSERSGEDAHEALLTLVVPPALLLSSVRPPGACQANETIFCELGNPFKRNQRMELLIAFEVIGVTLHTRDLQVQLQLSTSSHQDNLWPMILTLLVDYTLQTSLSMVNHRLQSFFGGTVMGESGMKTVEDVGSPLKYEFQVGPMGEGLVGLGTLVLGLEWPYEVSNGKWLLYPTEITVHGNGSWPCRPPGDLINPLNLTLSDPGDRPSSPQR
Chain of α3β1 integrin (P26006 876-1051 limits assumed): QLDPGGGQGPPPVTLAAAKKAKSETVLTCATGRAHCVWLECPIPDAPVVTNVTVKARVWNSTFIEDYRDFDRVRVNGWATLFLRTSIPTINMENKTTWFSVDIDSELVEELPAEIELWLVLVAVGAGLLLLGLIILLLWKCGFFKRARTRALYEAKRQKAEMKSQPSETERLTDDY
Chain of α3β1 integrin (P05556 21-798, further chain): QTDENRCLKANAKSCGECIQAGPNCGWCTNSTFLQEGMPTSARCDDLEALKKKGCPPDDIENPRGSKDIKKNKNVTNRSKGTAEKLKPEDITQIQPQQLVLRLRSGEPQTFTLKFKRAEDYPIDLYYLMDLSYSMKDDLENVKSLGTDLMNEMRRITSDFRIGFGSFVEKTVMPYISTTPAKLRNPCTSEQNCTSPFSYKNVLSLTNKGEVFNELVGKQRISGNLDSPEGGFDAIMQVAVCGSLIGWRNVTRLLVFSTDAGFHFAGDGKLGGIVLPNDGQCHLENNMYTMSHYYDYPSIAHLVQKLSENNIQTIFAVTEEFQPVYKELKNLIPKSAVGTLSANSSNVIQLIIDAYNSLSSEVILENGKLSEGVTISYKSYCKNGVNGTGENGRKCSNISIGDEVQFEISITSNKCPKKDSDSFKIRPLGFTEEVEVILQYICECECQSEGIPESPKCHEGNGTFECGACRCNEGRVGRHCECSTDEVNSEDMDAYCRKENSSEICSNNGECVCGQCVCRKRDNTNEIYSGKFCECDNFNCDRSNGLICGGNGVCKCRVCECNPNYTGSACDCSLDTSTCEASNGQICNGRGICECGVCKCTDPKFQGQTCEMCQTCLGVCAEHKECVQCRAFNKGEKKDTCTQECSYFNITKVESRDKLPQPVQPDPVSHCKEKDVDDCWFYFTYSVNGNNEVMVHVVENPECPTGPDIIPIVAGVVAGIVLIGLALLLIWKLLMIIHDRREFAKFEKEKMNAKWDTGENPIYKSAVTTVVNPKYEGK
Protocol: Function-blocking experiments using monoclonal antibodies against various integrin subunits were carried out to examine whether α3β1 integrin, known as a surface receptor of βig-h3, would be involved in the cell adhesion mediated by the synthetic peptides EPDIM (SEQ ID NO:3) and NKDIL (SEQ ID NO:2). HCE was preincubated at 37° C. for 30 mm in the presence of each of the monoclonal antibodies (5 μg/ml) against different types of integrins. The preincubated cells were transferred onto plates precoated with 100 μM EPDIM (SEQ ID NO:3) or 100 μM NKDIL (SEQ ID NO:2) and then incubated further at 37° C. for 1 hour, followed by the quantitative analysis with hexosaminidase substrate as in Example 1-2.

HCE cells [5] = test: Cell attachment activity of recombinant βig-h3 fas-1 domain proteins coated on plates (hexosaminidase assay); details: HCE cells on plates coated with the recombinant protein, 37° C. 1 hour, FIG. 2
Protocol: as §1

HCE cells [6] = test: Cell attachment activity of substitution mutants of the 4th fas-1 domain of βig-h3; details: HCE cells on plates coated with the mutant protein, 37° C. 1 hour, FIG. 6
Protocol: as §1
Examination was made of the cell attachment activity of the mutated proteins wherein the Pro616, Asp617 and Ile618 of βigh3 D-IV were substituted, in combination, with Ser, Ala and Ser, respectively, that is, βigh3 D-IV-sDI, βigh3 D-IV-Pal, βigh3 D-IV-PDs, and βigh3 D-IV-sas. To this end, HCE cells were incubated at 37° C. for 1 hour in well plates coated with the mutant proteins, followed by subjecting the attached cells to the hexosaminidase substrate as in Example 1-2.

DEMPI [reference compound]
cell detachment activity (HCE cells [1]): failed to show; also recorded: low cell detachment activity
inhibition of HCE cell adhesion to βig-h3 (HCE cells [1]): did not affect cell adhesion
ability to mediate cell adhesion (HCE cells [2]): not active in cell adhesion

EPDIM [synthetic peptide, a.a]
inhibitory effect on cell adhesion to fibronectin (HCE cells [3]): dose-dependent
inhibitory effect on cell adhesion to laminin (HCE cells [3]): dose-dependent
inhibitory effect on cell adhesion to βig-h3 (HCE cells [3]): dose-dependent
inhibition of cell adhesion to fibronectin (HCE cells [4]): weakly inhibited
inhibition of cell adhesion to laminin (HCE cells [4]): efficiently blocked
inhibition of cell adhesion to type I collagen (HCE cells [4]): did not affect
inhibition of cell adhesion to type II collagen (HCE cells [4]): did not affect
inhibition of cell adhesion to vitronectin (HCE cells [4]): did not affect
inhibition of cell adhesion to βig-h3 (HCE cells [4]): efficiently blocked
α3β1 integrin as receptor in peptide-mediated cell adhesion (α3β1 integrin): revealed to act as a receptor
cell detachment activity (HCE cells [1]): very excellent cell detachment effect; also recorded: excellent cell detachment activity
inhibition of HCE cell adhesion to βig-h3 (HCE cells [1]): significant suppression of the cell attachment activity; also recorded: significantly blocked
ability to mediate cell adhesion (HCE cells [2]): capable of mediating cell adhesion in dose-dependent manners; also recorded: mediate cell adhesion in dose-dependent manners

KADHH [synthetic peptide, a.a]
cell detachment activity (HCE cells [1]): relatively very low cell detachment effects
inhibition of HCE cell adhesion to βig-h3 (HCE cells [1]): weak suppression of cell adhesion; also recorded: weakly inhibited
ability to mediate cell adhesion (HCE cells [2]): low in activity compared to NKDIL

NKDIL [synthetic peptide, a.a]
inhibition of cell adhesion to fibronectin (HCE cells [4]): weakly inhibited
inhibition of cell adhesion to laminin (HCE cells [4]): efficiently blocked
inhibition of cell adhesion to type I collagen (HCE cells [4]): did not affect
inhibition of cell adhesion to type II collagen (HCE cells [4]): did not affect
inhibition of cell adhesion to vitronectin (HCE cells [4]): did not affect
inhibition of cell adhesion to βig-h3 (HCE cells [4]): efficiently blocked
α3β1 integrin as receptor in peptide-mediated cell adhesion (α3β1 integrin): revealed to act as a receptor
cell detachment activity (HCE cells [1]): very excellent cell detachment effect; also recorded: excellent cell detachment activity
inhibition of HCE cell adhesion to βig-h3 (HCE cells [1]): significant suppression of the cell attachment activity; also recorded: significantly blocked
ability to mediate cell adhesion (HCE cells [2]): capable of mediating cell adhesion in dose-dependent manners; also recorded: mediate cell adhesion in dose-dependent manners

B1: βigh3-D-I: recombinant His-tagged 1st fas-1 domain of human βig-h3, amino acid residues 133 to 236 (protein)
chain: EGPGSFTIFAPSNEAWASLPAEVLDSLVSNVNIELLNALRYHMVGRRVLTDELKHGMTLTSMYQNSNIQIHHYPNGIVTVNCARLLKADHHATNGVVHLIDKVIHHHHHH
cell attachment and spreading activity (HCE cells [5]): weak activity

B2: βigh3-D-II: recombinant His-tagged 2nd fas-1 domain of human βig-h3, amino acid residues 242 to 372 (protein)
chain: NIQQIIEIEDTFETLRAAVAASGLNTMLEGNGQYTLLAPTNEAFEKIPSETLNRILGDPEALRDLLNNHILKSAMCAEAIVAGLSVETLEGTTLEVGCSGDMLTINGKAIISNKDILATNGVIHYIDELLIHHHHHH
cell attachment and spreading activity (HCE cells [5]): comparable to the activity of wild type βig-h3

B3: βigh3-D-IV: recombinant His-tagged 4th fas-1 domain of human βig-h3, amino acid residues 501 to 632 (protein)
chain: MGTVMDVLKGDNRFSMLVAAIQSAGLTETLNREGVYTVFAPTNEAFRALPPRERSRLLGDAKELANILKYHIGDEILVSGGIGALVRLKSLQGDKLEVSLKNNVVSVNKEPVAEPDIMATNGVVHVITNVLHHHHHH
cell attachment and spreading activity (HCE cells [5]): comparable to the activity of wild type βig-h3

B4: βigh3 D-IV-sDI: βigh3 D-IV mutant having Ser instead of Pro616 (protein)
chain: B3 chain with P115S
cell attachment activity (HCE cells [6]): comparable to that of the wild type control

B5: βigh3 D-IV-PDs: βigh3 D-IV mutant having Ser instead of Ile618 (protein)
chain: B3 chain with I117S
cell attachment activity (HCE cells [6]): significantly blocked cell adhesion

B6: βigh3 DIV-sas: βigh3 D-IV mutant in which the three amino acids Pro616, Asp617, Ile618 were mutated to Ser, Ala, Ser (protein)
chain: B3 chain with P115S, D116A, I117S
cell attachment activity (HCE cells [6]): far lower than the control

B7: βigh3 D-IV-Pal: βigh3 D-IV mutant having Ala instead of Asp617 (protein)
chain: B3 chain with D116A
cell attachment activity (HCE cells [6]): significantly blocked cell adhesion

B8: βigh3-D-III: recombinant His-tagged 3rd fas-1 domain of human βig-h3, amino acid residues 373 to 501 (protein)
chain: PDSAKTLFELAAESDVSTAIDLFRQAGLGNHLSGSERLTLLAPLNSVFKDGTPPIDAHTRNLLRNHIIKDQLASKYLYHGQTLETLGGKKLRVFVYRNSLCIENSCIAAHDKRGRYGTLFTMDRVLTPPHHHHHH
cell attachment and spreading activity (HCE cells [5]): almost no activity

Source: patent US7250400B2, “Peptides and derivatives thereof showing cell attachment, spreading and detachment activity” (Regen Biotech, Inc., priority 2002, dated 2007)
